Measurements: US11293927B2, “Screening methods for PARP modulators” (Ribon Therapeutics, Inc., priority 2018, dated 2022)

Experiments:
[1] = target: T1, PARP12 (Homo sapiens, UniProt Q9H0J9); assay: In vitro TR-FRET probe displacement assay (Probe C), PARP12; type: binding; set-up: 489-684 of; details: TR-FRET displacement of Probe C, PARP12 residues 489-684
T1 sequence (Q9H0J9 489-684): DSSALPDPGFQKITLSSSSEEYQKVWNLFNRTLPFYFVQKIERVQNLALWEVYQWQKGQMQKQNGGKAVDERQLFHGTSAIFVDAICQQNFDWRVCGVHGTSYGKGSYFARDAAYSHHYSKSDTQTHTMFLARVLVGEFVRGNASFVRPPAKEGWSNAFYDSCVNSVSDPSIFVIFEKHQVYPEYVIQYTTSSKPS
Method: A portion of PARP12 (residues 489 to 684 of NP_073587.1 (SEQ ID NO: 3), GenBank Accession No. NM_022750.3) was overexpressed in Sf9 cells. An N-terminal fusion tag, MAHHHHHHENLYFQSM (SEQ ID NO: 8), was used to purify the protein from cell lysates. The fusion tag was left on the protein for use in the probe displacement assay.
Displacement of a Probe C binding to monoPARP active sites was measured using a time-resolved fluorescence resonance energy transfer (TR-FRET) assay. 20 nL of a dose response curve of each test compound was spotted in black 384-well polystyrene proxiplates (Perkin Elmer) using a Mosquito (TTP Labtech). Reactions were performed in a 8 μL volume by adding 6 μL of the monoPARP and Probe C in assay buffer (20 mM HEPES pH=8, 100 mM NaCl, 0.1% bovine serum albumin, 2 mM DTT and 0.002% Tween20), incubating with test compound at 25° C. for 30 min, then adding 2 μL of ULight-streptavidin and LANCE Eu-W 1024 Anti-6×His (Perkin Elmer). Binding reactions were equilibrated at 25° C. for an additional 30 min, then read on an Envision platereader equipped with a LANCE/DELFIA top mirror (Perkin Elmer) using excitation of 320 nm and emission of 615 nm and […] with a 90 μs delay. The ratio of the 665/615 nm emission were calculated for each well to determine the amount of complex of monoPARP and Probe C in each well. […]

[2] = target: T2, PARP14 (Homo sapiens, UniProt Q460N5); assay: NanoBRET probe displacement assay (Probe A) in live 293T cells, PARP14; type: cell-based; details: NanoBRET displacement of Probe A, NanoLuc-tagged PARP14 in live 293T cells
T2 sequence (Q460N5 1611-1801): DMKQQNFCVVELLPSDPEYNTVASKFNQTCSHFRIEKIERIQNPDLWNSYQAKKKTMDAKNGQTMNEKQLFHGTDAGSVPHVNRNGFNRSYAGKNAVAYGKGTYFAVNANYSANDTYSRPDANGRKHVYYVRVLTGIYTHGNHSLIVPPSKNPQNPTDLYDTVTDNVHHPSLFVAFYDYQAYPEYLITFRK
Method: MonoPARP genes from Table 5 were cloned into the pcDNA3.1-mammalian expression vector as a NanoLuc fusion with NanoLuc on the N- or C-terminus as indicated. The sequence of the NanoLuc tag is as follows: [table] Displacement of a fluorescently-labeled compound Probe A binding to NanoLuc-tagged monoPARP enzymes was measured in live cells using a bioluminescence resonance energy transfer (NanoBRET) assay. TIPARP, PARP10, PARP12 or PARP14 fused to a NanoLuc tag were overexpressed in 293T cells (ATCC) using the plasmids described herein. Plasmid DNA and empty vector DNA were added to phenol red free OptiMEM (Thermo Fisher) as shown in Table 6 in a total volume of 2.456 mL. 157 μL of Fugene HD (Promega) was added to the DNA mixture and allowed to incubate 5 min at 25° C. [table] Next, 2.375 mL of the plasmid-Fugene mixture were added to 20 million 293T cells in DMEM (Thermo Fisher) supplemented with 10% FBS (VWR). The transfection was incubated for 24 h at 37° C. in an incubator containing air supplemented with 5% CO2. The cells were resuspended in phenol red free OptiMEM media. 40 μL of cells were then added to white polystyrene 384-well non-binding surface microplate (Corning). […] Filtered luminescence was measured on an Envision (Perkin Elmer) equipped with a dual 585 nm mirror, 460±40 nm bandpass filter (donor) and 610±50 nm longpass filter (acceptor). […]

SMILES: O=c1[nH]ncc(N2Cc3ccc(OC4CCNCC4)cc3C2)c1C(F)(F)F [Compound A, 5-[5-(Piperidin-4-yloxy)-2,3-dihydro-1H-isoindol-2-yl]-4-(trifluoromethyl)-2,3-dihydropyridazin-3-one]
- IC50 [1]: 200 nM
- IC50 [2]: 30 nM
